Results from patent US20260200903A1, “PHARMACEUTICAL COMPOSITION FOR AMELIORATING MALIGNANT DISEASES” (KINKI UNIVERSITY, priority 2020, published 2026).

Legend:
Type in all cases: cell-based
[1] = tested on: NF-κB p52 nuclear; assay: Immunoblotting of NF-κB p52 nuclear in KMS-28BM cells; details: nuclear fraction, 72 h, same concentrations (0.005-100 μM)
Protocol: (§1) Immunoblotting was performed on KMS-28BM cells to investigate the inhibitory effect of each compound administration on NIK inhibition and the activation of IKK, NF-κB p52, and NF-κB p65, which are downstream signals of NIK. As a result, inhibition of NIK activation, inhibition of IKK activity, and inhibition of nuclear translocation of NF-κB p52 and NF-κB p65 were observed (FIG. 15 and FIG. 16).
(§2) As a control, compounds untreated KMS-28BM cells were seeded in 150 cm^2 flasks and incubated for 72 h at 37° C. and 5% CO2. KMS-28BM cells were seeded into 150 cm^2 flasks and pre-cultured for 24 h. After incubation, KMS-28BM cells were treated with […], 1 μM norathyriol, 0.5 μM M7 (formula (4)), 1 μM M8 (mangiferin 8a: listed in duplicate), 0.2 μM M9 (formula (5)), 5 μM yk-7 (formula (1)), 0.5 μM yk-8-3 (formula (3)) and 100 μM yk-8-1 (formula (2)) at final concentrations, and incubated for 72 h at 37° C. and 5% CO2. In addition, KMS-28BM cells were also treated with 0.5 μM M19 (formula (12)), 0.5 μM M18 (formula (11)), 0.005 μM M16 (formula (10)), […] (formula (9)), 0.005 μM M14 (formula (8)), 0.05 μM M12 (formula (7)) and […] (formula (6)) at the final concentrations, and incubated for 72 h at 37° C. and 5% CO2. Proteins were extracted from these cell suspensions with cell lysate and used as samples.
(§3) The nucleus and cytoplasmic substrate were separated from the cells using the ProteoExtract (registered trademark) Subcellular Proteome Extraction Kit from Merck Ltd. to extract the cytoplasmic and nuclear fractions.
(§4) After SDS-PAGE, each sample was transferred to a PVDF membrane and examined using anti-phospho-NIK, anti-NIK, anti-phospho-IKK, anti-IKK, anti-P-actin, anti-NF-κB p52 and anti-NF-κB p65 antibody, and anti-Lamin antibody.
(§5) The antibody species is indicated in the vertical direction. Specifically, for anti-phospho-NIK antibody, “Phospho-NIK” was used, for anti-NIK antibody, “NIK” was used, for anti-phospho-IKK antibody, “Phospho-IKK” was used, for anti-IKK antibody, “IKK” was used, for anti-p-actin antibody, “p-actin” was used, for anti-NF-κB p52 antibody, “NF-κB p52 nuclear” was used, for anti-NF-κB p65 antibody, “NF-κB p65 nuclear” was used, and for anti-Lamin antibody, “Lamin” was used.

[2] = tested on: RPMI8226/B cells (bortezomib-resistant myeloma cell line); assay: Cell death inducing effect on RPMI8226/B cells, trypan blue staining; details: RPMI8226/B (myeloma; bortezomib resistance), cell viability
Protocol: (§6) RPMI8226/B cells (bortezomib-resistant myeloma cell line) were cultured under 5% CO2 at 37° C. The culture medium used RPMI-1640 medium with 100 μg/mL penicillin, 100 U/mL streptomycin and fetal bovine serum. RPMI8226/B cells were seeded into 96-well plates and incubated with each concentration of the compounds was added, and cell viability was determined by the trypan blue staining.
(§7) For controls, only 0.5% DMSO (diluted in PBS) used to dissolve the compounds was added. For each concentration, each bar line is indicated by an arrow with the sign “n, a, 1, 2, 3, 4, 5, 6, 7, 8, 9, 10, 11, 12” from left to right. The “1, 3, 5, 7, 9, 11” are omitted from the graph, but the sign “1” shall be indicated by an arrow between the signs “a” and “2”, the sign “3” between the signs “2” and “4”, and other odd numbers shall likewise be indicated by arrows between even numbers before and after.
(§8) The sign “n” is the norathyriol (formula (n)) administration group, the sign “a” is the mangiferin 8a (formula (a)) administration group, the sign “1” is the yk-7 (formula (1)) administration group, the sign “2” is the yk-8-1 (formula (2)) administration group, the sign “3” is the yk-8-3 (formula (3)) administration group, the sign “4” is the M7 (formula (4)) administration group, the sign “5” is the M9 (formula (5)) administration group, the sign “6” is the M11 (formula (6)) administration group, the sign “7” is the M12 (formula (7)) administration group, the sign “8” is the M14 (formula (8)) administration group, the sign “9” is the M15 (formula (9)) administration group, the sign “10” is the M16 (formula (10)) administration group, the sign “11” is the M18 (formula (11)) administration group, the sign “12” is the M19 (formula (12)) administration group, respectively. The IC50 values for each compound is also listed in the upper right corner of the figure.

[3] = tested on: Raji cells (burkitt lymphoma cell line); assay: Cell death inducing effect on Raji cells, trypan blue staining; details: Raji (Burkkit lymphoma), cell viability
Protocol: as §6, with “Raji” for “RPMI8226/B”, “(burkitt lymphoma” for “(bortezomib-resistant myeloma”
as §7, §8

[4] = tested on: phospho-IKK; assay: Immunoblotting of phospho-IKK in KMS-28BM cells; details: 72 h, vs control, same concentrations as for phospho-NIK (0.005-100 μM)
Protocol: as §1, §2, §3, §4, §5

[5] = tested on: CD20; assay: CD20 expression in KMS-28BM cells, flow cytometry; details: 10 days, concentration lower than the IC50 (0.005-50 μM), compared to the positive control
Protocol: As a control, compounds untreated KMS-28BM cells were seeded in 75 cm^2 flasks and incubated for 10 days at 37° C. and 5% CO2. KMS-28BM cells were seeded into 75 cm^2 flasks and pre-cultured for 4 h. After incubation, KMS-28BM cells were treated with […], 0.05 μM M9, 0.1 μM yk-7, 0.1 μM yk-8-3, 50 μM yk-8-1, 0.5 μM M11, […], 0.005 μM M14, 0.005 μM M15, 0.005 μM M16, 0.5 μM M18, and 0.5 μM M19 at final concentrations, and incubated for 10 days at 37° C. and 5% CO2. This added amount is a concentration lower than the IC50 of the above compounds for KMS-28BM cells. After 10 days of incubation, cells were stained with anti-CD20 antibody, a B cell marker, and CD20 expression was measured using BD LSRFortessa. CCRF-SB cells were used as CD20-positive controls.
Results are shown in FIG. 21, FIG. 22, FIG. 23, and FIG. 24. The horizontal axis represents the expression level of CD20 and the vertical axis represents the number of cells.

Compound: 1,2′,3′,4′,6-penta-O-propionylmangiferin [Compound 8a, reference compound]
- NF-κB p52 nuclear [1]: decreased
- IC50 [2]: 892 nM
- IC50 [3]: 4150 nM
- phospho-IKK band density (anti-phospho-IKK antibody) [4]: decrease in band density

Compound: CCC(=O)OC[C@H]1O[C@@H](c2c(OC(=O)CC)cc3oc4cc(OC(=O)CC)c(OC(=O)CC)cc4c(=O)c3c2OC(=O)CC)[C@H](OC(=O)CC)[C@@H](OC(=O)CC)[C@@H]1OC(=O)CC [Compound M7, 1,3,2′,3′,4′,6,6′,7-octa-O-propionylmangiferin]
- CD20 expression level [5]: significantly increased
- NF-κB p52 nuclear [1]: decreased
- IC50 ([2]; Homo sapiens, RPMI-8226): 251 nM
- IC50 ([3]; Homo sapiens): 898 nM
- phospho-IKK band density (anti-phospho-IKK antibody) [4]: decrease in band density

Compound: CCC(=O)OC[C@H]1O[C@@H](c2c(O)cc3oc4cc(O)c(O)cc4c(=O)c3c2O)[C@H](OC(=O)CC)[C@@H](OC(=O)CC)[C@@H]1OC(=O)CC [Compound M9, 2′,3′,4′,6′-tetra-O-propionylmangiferin]
- CD20 expression level [5]: significantly increased
- NF-κB p52 nuclear [1]: decreased
- IC50 ([2]; Homo sapiens, RPMI-8226): 69 nM
- IC50 ([3]; Homo sapiens): 227 nM
- phospho-IKK band density (anti-phospho-IKK antibody) [4]: decrease in band density

Compound: CCCC(=O)OC[C@H]1O[C@@H](c2c(OC(=O)CCC)cc3oc4cc(OC(=O)CCC)c(OC(=O)CCC)cc4c(=O)c3c2OC(=O)CCC)[C@H](OC(=O)CCC)[C@@H](OC(=O)CCC)[C@@H]1OC(=O)CCC [Compound M11, 1,3,2′,3′,4′,6,6′,7-octa-O-butyrylmangiferin]
- CD20 expression level [5]: significantly increased
- NF-κB p52 nuclear [1]: decreased
- IC50 [2]: 169 nM
- IC50 [3]: 698 nM
- phospho-IKK band density (anti-phospho-IKK antibody) [4]: decrease in band density

Compound: CCCC(=O)OC[C@H]1O[C@@H](c2c(O)cc3oc4cc(O)c(O)cc4c(=O)c3c2OC(=O)CCC)[C@H](OC(=O)CCC)[C@@H](OC(=O)CCC)[C@@H]1OC(=O)CCC [Compound M12, 1,2′,3′,4′,6-penta-O-butyrylmangiferin]
- CD20 expression level [5]: significantly increased
- NF-κB p52 nuclear [1]: decreased
- IC50 ([2]; Homo sapiens, RPMI-8226): 91 nM
- IC50 ([3]; Homo sapiens): 657 nM
- phospho-IKK band density (anti-phospho-IKK antibody) [4]: decrease in band density

Compound: CCCC(=O)OC[C@H]1O[C@@H](c2c(O)cc3oc4cc(O)c(O)cc4c(=O)c3c2O)[C@H](OC(=O)CCC)[C@@H](OC(=O)CCC)[C@@H]1OC(=O)CCC [Compound M14, 2′,3′,4′,6′-tetra-O-butyrylmangiferin]
- CD20 expression level [5]: significantly increased
- NF-κB p52 nuclear [1]: decreased
- IC50 ([2]; Homo sapiens, RPMI-8226): 51 nM
- IC50 ([3]; Homo sapiens): 85 nM
- phospho-IKK band density (anti-phospho-IKK antibody) [4]: decrease in band density

Compound: CC(C)(C)C(=O)OC[C@H]1O[C@@H](c2c(O)cc3oc4cc(O)c(O)cc4c(=O)c3c2O)[C@H](OC(=O)C(C)(C)C)[C@@H](OC(=O)C(C)(C)C)[C@@H]1OC(=O)C(C)(C)C [Compound M15, 2′,3′,4′,6′-tetra-O-pivaloylmangiferin]
- CD20 expression level [5]: significantly increased
- NF-κB p52 nuclear [1]: decreased
- IC50 ([2]; Homo sapiens, RPMI-8226): 71 nM
- IC50 ([3]; Homo sapiens): 96 nM
- phospho-IKK band density (anti-phospho-IKK antibody) [4]: decrease in band density

Compound: CCCCO[C@@H]1[C@@H](OCCCC)[C@H](c2c(O)cc3oc4cc(O)c(O)cc4c(=O)c3c2O)O[C@H](COC(=O)CCC)[C@H]1OC(=O)CCC [Compound M16, 2′,3′-di-O-butyl-4′,6′-di-O-butyrylmangiferin]
- CD20 expression level [5]: significantly increased
- NF-κB p52 nuclear [1]: decreased
- IC50 ([2]; Homo sapiens, RPMI-8226): 42 nM
- IC50 ([3]; Homo sapiens): 79 nM
- phospho-IKK band density (anti-phospho-IKK antibody) [4]: decrease in band density

Compound: O=c1c2cc(O)c(O)cc2oc2cc(O)cc(OCCO)c12 [Compound M18, 3,6,7-trihydroxy-1-(2-hydroxyethoxy)-9H-xanthen-9-one]
- CD20 expression level [5]: significantly increased
- NF-κB p52 nuclear [1]: decreased
- IC50 ([2]; Homo sapiens, RPMI-8226): 486 nM
- IC50 ([3]; Homo sapiens): 5590 nM
- phospho-IKK band density (anti-phospho-IKK antibody) [4]: decrease in band density

Compound: C=CCOc1cc(O)cc2oc3cc(O)c(O)cc3c(=O)c12 [Compound M19, 1-allyloxy-3,6,7-trihydroxy-9H-xanthen-9-one]
- CD20 expression level [5]: significantly increased
- NF-κB p52 nuclear [1]: decreased
- IC50 ([2]; Homo sapiens, RPMI-8226): 758 nM
- IC50 ([3]; Homo sapiens): 8920 nM
- phospho-IKK band density (anti-phospho-IKK antibody) [4]: decrease in band density

Compound: O=c1c2cc(O)c(O)cc2oc2cc(O)cc(O)c12 [norathyriol, reference compound]
- NF-κB p52 nuclear [1]: decreased
- IC50 ([2]; Homo sapiens, RPMI-8226): 632 nM
- IC50 ([3]; Homo sapiens): 8600 nM
- phospho-IKK band density (anti-phospho-IKK antibody) [4]: decrease in band density

Compound: CCCCC(=O)OC[C@H]1O[C@@H](c2c(O)cc3oc4cc(O)c(O)cc4c(=O)c3c2O)[C@H](OC(=O)CCCC)[C@@H](OC(=O)CCCC)[C@@H]1OC(=O)CCCC [yk-7, 2′,3′,4′,6′-tetra-O-valerylmangiferin]
- CD20 expression level [5]: significantly increased
- NF-κB p52 nuclear [1]: decreased
- IC50 ([2]; Homo sapiens, RPMI-8226): 79 nM
- IC50 ([3]; Homo sapiens): 383 nM
- phospho-IKK band density (anti-phospho-IKK antibody) [4]: decrease in band density

Compound: CCCCC(=O)OC[C@H]1O[C@@H](c2c(OC(=O)CCCC)cc3oc4cc(OC(=O)CCCC)c(OC(=O)CCCC)cc4c(=O)c3c2OC(=O)CCCC)[C@H](OC(=O)CCCC)[C@@H](OC(=O)CCCC)[C@@H]1OC(=O)CCCC [yk-8-1, 1,3,2′,3′,4′,6,6′,7-octa-O-valerylmangiferin]
- CD20 expression level [5]: significantly increased
- NF-κB p52 nuclear [1]: decreased
- IC50 [2]: 6430 nM
- IC50 [3]: > 100000 nM
- phospho-IKK band density (anti-phospho-IKK antibody) [4]: decrease in band density
